In US10112907B2, “Substituted indazoles for treating tendon and/or ligament injuries” (NOVARTIS AG, priority 2016, dated 2018):

The compounds below were run on Scleraxis (Scx) gene transcriptional activation in TT-D6 Scx-luciferase (ScxL) cell line (assay: SCX-LUC in vitro assay (Scx-luciferase reporter)). Details: Mus musculus, 96 h; Table 3; four days; read-out: Scx-Luc (EC50 μM).
Format: cell-based

Compared with `Nc1n[nH]c2ccc(-c3ccc(S(=O)(=O)N4CC[C@@H](O)C4)cc3Cl)c(Cl)c12` [Example 8, (R)-1-((4-(3-amino-4-chloro-1H-indazol-5-yl)-3-chlorophenyl)sulfonyl)pyrrolidin-3-ol], `Nc1n[nH]c2ccc(-c3ccc(S(=O)(=O)N4CC(F)(F)C[C@H]4CO)cc3Cl)c(Cl)c12` [Example 53, (S)-(1-((4-(3-amino-4-chloro-1H-indazol-5-yl)-3-chlorophenyl)sulfonyl)-4,4-difluoropyrrolidin-2-yl)methanol] is 4.9-fold lower in EC50: 3.6 µM for the first, 0.74 µM for the second. The second is the more potent here.

`Cc1cc(S(=O)(=O)NC2CCCC(O)C2)ccc1-c1ccc2[nH]nc(N)c2c1C` (centres unmarked) [Example 25, 4-(3-amino-4-methyl-1H-indazol-5-yl)-N-(3-hydroxycyclohexyl)-3-methylbenzenesulfonamide] and `Cc1cc(S(=O)(=O)N[C@@H]2CCC[C@@H](C#N)C2)ccc1-c1ccc2[nH]nc(N)c2c1C` [Example 26, 4-(3-amino-4-methyl-1H-indazol-5-yl)-N-((1R,3R)-3-cyanocyclohexyl)-3-methylbenzenesulfonamide] are within 1.5-fold of each other in EC50: 0.606 µM for the first, 0.745 µM for the second.

`Cc1cc(S(=O)(=O)N[C@@H]2CCC[C@@H]2O)ccc1-c1ccc2[nH]nc(N)c2c1Cl` [Example 29, 4-(3-amino-4-chloro-1H-indazol-5-yl)-N-((1R,2S)-2-hydroxycyclopentyl)-3-methylbenzenesulfonamide] and `Cc1cc(S(=O)(=O)N[C@@H]2CCC[C@@H]2O)ccc1-c1ccc2[nH]nc(N)c2c1F` [Example 75, 4-(3-amino-4-fluoro-1H-indazol-5-yl)-N-((1R,2S)-2-hydroxycyclopentyl)-3-methylbenzenesulfonamide] are within 1.5-fold of each other in EC50: 0.277 µM for the first, 0.359 µM for the second.

First: Nc1n[nH]c2ccc(-c3ccc(S(=O)(=O)N4CC(F)(F)C[C@H]4CO)cc3F)c(F)c12 [Example 61, (S)-(1-((4-(3-amino-4-fluoro-1H-indazol-5-yl)-3-fluorophenyl)sulfonyl)-4,4-difluoropyrrolidin-2-yl)methanol]
Second: Cc1c(-c2ccc(S(=O)(=O)N3CC(F)(F)C[C@H]3CO)cc2F)ccc2[nH]nc(N)c12 [Example 42, (S)-(1-((4-(3-amino-4-methyl-1H-indazol-5-yl)-3-fluorophenyl)sulfonyl)-4,4-difluoropyrrolidin-2-yl)methanol]
The EC50 of the first is 1.8-fold higher: 1.5 µM for the first, 0.814 µM for the second. The second is the more potent here.

Going from `Cc1cc(S(=O)(=O)NC2CC(F)(F)C2)ccc1-c1ccc2[nH]nc(N)c2c1Cl` [Example 66, 4-(3-amino-4-chloro-1H-indazol-5-yl)-N-(3,3-difluorocyclobutyl)-3-methylbenzenesulfonamide] to `Cc1cc(S(=O)(=O)NC2CC(F)(F)C2)ccc1-c1ccc2[nH]nc(N)c2c1C` [Example 24, 4-(3-amino-4-methyl-1H-indazol-5-yl)-N-(3,3-difluorocyclobutyl)-3-methylbenzenesulfonamide], the EC50 falls from 1.08 µM to 0.366 µM (3-fold). The second is the more potent here.

`Cc1cc(S(=O)(=O)N[C@@H]2CCCC[C@@H]2O)ccc1-c1ccc2[nH]nc(N)c2c1C` [Example 17, 4-(3-amino-4-methyl-1H-indazol-5-yl)-N-((1R,2S)-2-hydroxycyclohexyl)-3-methylbenzenesulfonamide] and `Cc1cc(S(=O)(=O)N[C@H]2CCC[C@@]2(C)O)ccc1-c1ccc2[nH]nc(N)c2c1C` [Example 59, 4-(3-amino-4-methyl-1H-indazol-5-yl)-N-((1S,2R)-2-hydroxy-2-methylcyclopentyl)-3-methylbenzenesulfonamide] are within 1.5-fold of each other in EC50: 4.8 µM for the first, 3.32 µM for the second.

First: Cc1c(-c2ccc(S(=O)(=O)N3CCC[C@H]3CO)cc2Cl)ccc2[nH]nc(N)c12 [Example 38, (S)-(1-((4-(3-amino-4-methyl-1H-indazol-5-yl)-3-chlorophenyl)sulfonyl)pyrrolidin-2-yl)methanol]
Second: Cc1cc(S(=O)(=O)N2CC(O)C2)ccc1-c1ccc2[nH]nc(N)c2c1C [Example 11, 1-((4-(3-amino-4-methyl-1H-indazol-5-yl)-3-methylphenyl)sulfonyl)azetidin-3-ol]
The EC50 of the first is 2-fold lower: 2.04 µM for the first, 4.13 µM for the second. The first is the more potent here.

First: Cc1cc(S(=O)(=O)N2CC(F)(F)C[C@H]2C(N)=O)ccc1-c1ccc2[nH]nc(N)c2c1C [Example 81, (S)-1-((4-(3-amino-4-methyl-1H-indazol-5-yl)-3-methylphenyl)sulfonyl)-4,4-difluoropyrrolidine-2-carboxamide]
Second: Cc1cc(S(=O)(=O)N2CCCC(F)(F)C2)ccc1-c1ccc2[nH]nc(N)c2c1C [Example 79, 5-(4-((3,3-difluoropiperidin-1-yl)sulfonyl)-2-methylphenyl)-4-methyl-1H-indazol-3-amine]
The EC50 of the first is 4.1-fold lower: 0.372 µM for the first, 1.52 µM for the second.

Going from `Cc1cc(S(=O)(=O)NC2CC(O)(C(F)(F)F)C2)ccc1-c1ccc2[nH]nc(N)c2c1F` (centres unmarked) [Example 71, 4-(3-amino-4-fluoro-1H-indazol-5-yl)-N-((1s,3s)-3-hydroxy-3-(trifluoromethyl)cyclobutyl)-3-methylbenzenesulfonamide] to `Cc1cc(S(=O)(=O)N[C@]2(C)C[C@H](O)C2)ccc1-c1ccc2[nH]nc(N)c2c1C` [Example 36, 4-(3-amino-4-methyl-1H-indazol-5-yl)-N-((1s,3s)-3-hydroxy-1-methylcyclobutyl)-3-methylbenzenesulfonamide], the EC50 rises from 0.108 µM to 0.806 µM (7.5-fold). The first is the more potent here.

Compared with `Nc1n[nH]c2ccc(-c3ccc(S(=O)(=O)N4CC(F)(F)C[C@H]4CO)cc3F)c(Cl)c12` [Example 47, (S)-(1-((4-(3-amino-4-chloro-1H-indazol-5-yl)-3-fluorophenyl)sulfonyl)-4,4-difluoropyrrolidin-2-yl)methanol], `Cc1cc(-c2ccc3[nH]nc(N)c3c2C)ccc1S(=O)(=O)N1CC(F)(F)C[C@H]1CO` [Example 91, (S)-(1-((4-(3-amino-4-methyl-1H-indazol-5-yl)-2-methylphenyl)sulfonyl)-4,4-difluoropyrrolidin-2-yl)methanol] is 3-fold higher in EC50: 0.986 µM for the first, 2.91 µM for the second.

`Cc1cc(S(=O)(=O)N(C)[C@@H]2CCC[C@@H]2O)ccc1-c1ccc2[nH]nc(N)c2c1C` [Example 84, 4-(3-amino-4-methyl-1H-indazol-5-yl)-N-((1R,2S)-2-hydroxycyclopentyl)-N,3-dimethylbenzenesulfonamide] and `Cc1cc(S(=O)(=O)N[C@H]2CC[C@@H](C#N)CC2)ccc1-c1ccc2[nH]nc(N)c2c1C` [Example 27, 4-(3-amino-4-methyl-1H-indazol-5-yl)-N-((1s,4s)-4-cyanocyclohexyl)-3-methylbenzenesulfonamide] are within 1.5-fold of each other in EC50: 1.69 µM for the first, 1.35 µM for the second.

First: Cc1cc(S(=O)(=O)NC2CC(O)(c3ccccc3)C2)ccc1-c1ccc2[nH]nc(N)c2c1C (centres unmarked) [Example 52, 4-(3-amino-4-methyl-1H-indazol-5-yl)-N-(3-hydroxy-3-phenylcyclobutyl)-3-methylbenzenesulfonamide]
Second: Nc1n[nH]c2ccc(-c3ccc(S(=O)(=O)N[C@@H]4CCC[C@@H]4O)cc3Cl)c(F)c12 [Example 76, 4-(3-amino-4-fluoro-1H-indazol-5-yl)-3-chloro-N-((1R,2S)-2-hydroxycyclopentyl)benzenesulfonamide]
The EC50 of the first is 3.4-fold higher: 0.578 µM for the first, 0.171 µM for the second.

Same assay, conditions: Mus musculus; Table 1; read-out: Scx-Luc (EC50 uM)

For `Cc1cnc(Nc2ccc(OCCN3CCCC3)cc2)nc1Nc1cccc(S(=O)(=O)NC(C)(C)C)c1` [reference compound], the EC50 was 0.62 µM.

Same assay, conditions: Mus musculus; assays described above (Scx-Luc and ex vivo); read-out: EC50 in the assays described above

For `Cc1cc(S(=O)(=O)NC2CCN(C)CC2)ccc1-c1ccc2[nH]nc(N)c2c1C` [4-(3-amino-4-methyl-1H-indazol-5-yl)-3-methyl-N-(1-methylpiperidin-4-yl)benzenesulfonamide], the EC50 was greater than 10 µM.
